Reference: PubChem BioAssay (NCI)
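These data come from cells grown in 96-well plates and exposed to compound for 48 hours at five concentrations. GI50 = concentration required for 50% inhibition of growth. TGI: total growth inhibition.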

What was measured:
Assay in all cases: NCI tumour cell line growth inhibition, 48 h
SK-MEL-28 melanoma = test system: SK-MEL-28 melanoma
IGROV1 ovarian = test system: IGROV1 ovarian
SF-268 CNS = test system: SF-268 CNS
SF-295 CNS = test system: SF-295 CNS
SNB-75 CNS = test system: SNB-75 CNS
M14 melanoma = test system: M14 melanoma
SK-MEL-5 melanoma = test system: SK-MEL-5 melanoma
SN12C renal = test system: SN12C renal
786-0 renal = test system: 786-0 renal
MALME-3M melanoma = test system: MALME-3M melanoma
RPMI-8226 leukemia = test system: RPMI-8226 leukemia

SMILES	TGI (SK-MEL-28 melanoma)	TGI (IGROV1 ovarian)	TGI (SF-268 CNS)	TGI (SF-295 CNS)	TGI (SNB-75 CNS)	TGI (M14 melanoma)	TGI (SK-MEL-5 melanoma)	TGI (SN12C renal)	TGI (786-0 renal)	TGI (MALME-3M melanoma)	TGI (RPMI-8226 leukemia)	GI50 (IGROV1 ovarian)	GI50 (SF-268 CNS)	GI50 (SF-295 CNS)	GI50 (SNB-75 CNS)	GI50 (SK-MEL-5 melanoma)	GI50 (SN12C renal)
COC(=O)C1CCC(=O)N1C(=O)Cc1ccc(OC)cc1 (configuration not stated)	> 100 µM	> 100 µM	> 100 µM	> 100 µM	> 100 µM	> 100 µM	> 100 µM	> 100 µM	–	–	–	–	–	–	–	–	–
COc1cc(/C=C/C(=O)c2c(=O)o[nH][n+]2-c2ccccc2)ccc1[O-]	8.85 µM	9.66 µM	15.2 µM	31.6 µM	8.7 µM	9.64 µM	15 µM	5.3 µM	4.94 µM	12 µM	5.55 µM	–	–	–	–	–	–
COc1nc2c(c(=O)n1C)N[C@H]1[C@H](OC(C)=O)[C@@H](OC(C)=O)CO[C@H]1N2	> 100 µM	> 100 µM	> 100 µM	> 100 µM	> 100 µM	> 100 µM	> 100 µM	> 100 µM	> 100 µM	> 100 µM	> 100 µM	–	–	–	–	–	–
N/N=C1/C2CN3CCN(C2)CC1(c1ccc([N+](=O)[O-])cc1)C3	> 100 µM	> 100 µM	> 100 µM	> 100 µM	> 100 µM	–	> 100 µM	> 100 µM	> 100 µM	> 100 µM	> 100 µM	–	–	–	–	–	–
N#Cc1nc(CCCCCN2C(=O)c3ccccc3C2=O)oc1N	> 100 µM	> 100 µM	> 100 µM	> 100 µM	–	> 100 µM	> 100 µM	> 100 µM	> 100 µM	> 100 µM	> 100 µM	–	–	–	–	–	–
C/C(=N\NC(=S)N1CCCCC1)c1cccc(C)n1	36.9 µM	12.8 µM	4.23 µM	> 33.4 µM	6.19 µM	0.394 µM	0.449 µM	12.1 µM	1.19 µM	2.13 µM	> 100 µM	–	–	–	–	–	–
Clc1ccc(N2N=C(c3cccc(Nc4ccncc4)c3)CC2c2ccc3c(c2)OCO3)cc1 (configuration not stated)	–	3.67 µM	3.32 µM	3.29 µM	5.68 µM	–	3.17 µM	3.25 µM	–	–	–	1.73 µM	1.63 µM	1.79 µM	1.58 µM	1.76 µM	1.71 µM
CCc1c(Cc2cccc3ccccc23)n2c(nc1=O)SCC2OCCO (configuration not stated)	> 100 µM	> 100 µM	> 100 µM	–	> 100 µM	> 100 µM	> 100 µM	> 100 µM	> 100 µM	> 100 µM	94.4 µM	–	–	–	–	–	–
COC(=O)[C@H]1[C@@H](C(C)C)O[C@@H](C(C)C)O[C@H]1C(F)(F)F	> 100 µM	> 100 µM	> 100 µM	> 100 µM	> 100 µM	> 100 µM	> 100 µM	> 100 µM	> 100 µM	> 100 µM	> 100 µM	–	–	–	–	–	–
Cc1cc(O)c(C(C)C)cc1SC#N	33.8 µM	37.6 µM	49.3 µM	31.2 µM	22.5 µM	–	42.7 µM	–	–	35.9 µM	33.7 µM	–	–	–	–	–	–
